The values below come from ChEMBL document CHEMBL1201862, “PubChem BioAssay data set” (2004).

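Test compounds were applied to cells in 96-well plates for 48 hours at 5 doses. GI50 marks 50% less growth.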 Active and inactive are the calls of the source. No stated cut-off is given here; in the data, active = GI50 up to about 1.1 µM and inactive = higher.

Among the test systems are HCT-15; 786-0; KM12; RXF 393; SF-539; SN12C; SR; NCI-H23; SF-295; HOP-92; A498; NCI-H460; SK-OV-3; K562; OVCAR-8; CCRF-CEM; MOLT-4; TK-10.
Holding throughout (test): inhibition of tumour cell growth, NCI panel, 48 h

Consider `CCOc1ccccc1NC(=O)C1=C(C)NC(C)=C(C(=O)Nc2ccccc2OCC)C1c1ccc([N+](=O)[O-])cc1`, for which the GI50 in the assay on HCT-15 is 75.3 µM; in the assay with 786-0, > 100 µM (inactive); with KM12, 41 µM (inactive); in the assay on RXF 393, > 100 µM (inactive); in the assay with SF-539, > 100 µM (inactive); in the assay on SN12C, > 100 µM (inactive). Besides, the GI50 in the assay on SR was 47.6 µM (inactive); in the assay on NCI-H23 it was 44 µM (inactive); in the assay with SF-295, 21.3 µM (inactive); in the assay with HOP-92, 10.5 µM (inactive); with A498 it was 78.9 µM (inactive); in the assay with NCI-H460, 63.2 µM (inactive). Moreover, the GI50 in the assay with SK-OV-3 is > 100 µM (inactive).
Take `COc1c(OC(C)=O)ccc(/C=C2\N=C(C)OC2=O)c1[N+](=O)[O-]`: the GI50 was above 100 µM in the assay on HCT-15; > 100 µM (inactive) in the assay on 786-0; > 100 µM (inactive) in the assay with KM12; > 100 µM (inactive) in the assay on RXF 393; > 100 µM (inactive) in the assay with K562; > 100 µM (inactive) in the assay on OVCAR-8. In addition, the GI50 with CCRF-CEM, in the assay on SF-539, with SN12C, in the assay with MOLT-4, with SR and in the assay on SF-295 was > 100 µM (inactive) each time. Also, the GI50 with HOP-92, in the assay on TK-10, in the assay with A498, in the assay on NCI-H460 and with SK-OV-3 was > 100 µM (inactive) in each case.
In the case of `CCC(C(=O)O)c1ccc(OCc2ccccc2)cc1` (centres undefined), the GI50 with KM12, in the assay on RXF 393, in the assay with K562, in the assay on CCRF-CEM, with SF-539 and with SN12C was > 100 µM (inactive) each time. Moreover, the GI50 in the assay with MOLT-4, in the assay on SR, in the assay with NCI-H23, in the assay with SF-295, with HOP-92 and in the assay on TK-10 was > 100 µM (inactive) in each case. Moreover, the GI50 in the assay with A498, in the assay on NCI-H460 and with SK-OV-3 was > 100 µM (inactive) in each case.
Consider `Cc1ccc(NC(=O)C(=O)CC(=O)c2c(C)[n+]([O-])c3ccccc3[n+]2[O-])cc1C`, for which the GI50 in the assay on HCT-15 was 83.2 µM; in the assay on 786-0, > 100 µM (inactive); in the assay with KM12, > 100 µM (inactive); in the assay on RXF 393, 44.7 µM (inactive); with K562 it was > 100 µM (inactive); in the assay with OVCAR-8 it was > 100 µM (inactive). The GI50 was 63.1 µM (inactive) in the assay with CCRF-CEM; > 100 µM (inactive) with SF-539; > 100 µM (inactive) in the assay on SN12C; 33.5 µM (inactive) in the assay with SR; > 100 µM (inactive) with NCI-H23; > 100 µM (inactive) in the assay with SF-295. For the same molecule, the GI50 in the assay with HOP-92 was > 100 µM (inactive); with TK-10, > 100 µM (inactive); in the assay with A498, > 100 µM (inactive); in the assay on NCI-H460 it was 83 µM (inactive); in the assay on SK-OV-3, > 100 µM (inactive).
For the molecule `Cc1ccccc1NC(=O)C1C(=O)N(c2ccccc2C)C(=O)/C1=N\NC(N)=O` (centres undefined), the GI50 in the assay with HCT-15 was above 100 µM; in the assay on 786-0, > 100 µM (inactive); in the assay with KM12, > 100 µM (inactive); in the assay with RXF 393, > 100 µM (inactive); with K562, > 100 µM (inactive); in the assay on OVCAR-8, > 100 µM (inactive). Moreover, the GI50 with CCRF-CEM, in the assay on SF-539, in the assay on SN12C, in the assay on MOLT-4, in the assay with SR and with NCI-H23 was > 100 µM (inactive) each time. Moreover, the GI50 in the assay with SF-295, with HOP-92, in the assay on TK-10, in the assay on A498 and with NCI-H460 was > 100 µM (inactive) in each case.
